The values that follow come from PubChem BioAssay AID306 (DTP/NCI, 2004).

This experiment concerns BDF1 mice, L1210 Methyl-GAG-resistant leukemia, survival T/C. Put plainly: NCI In Vivo Anticancer Drug Screen. Data for tumor model L1210 Leukemia resistant to Methyl-GAG; NSC 32946 (subcutaneous) in B6D2F1 (BDF1) mice. Conditions: endpoint: mean survival time, higher = longer survival. The method, then:
The antitumor activity of compounds was measured in mice bearing transplantable tumors. Survival or tumor size were measured and the results are expressed as the measurement made in the treated group (T) divided by the measurement made in the vehicle treated control group (C). The tumor model used in this assay is L1210 Leukemia resistant to Methyl-GAG; NSC 32946 (subcutaneous) in B6D2F1 (BDF1) mice

Where [1] appears, read: dose: 63.0 micrograms/kg/injection, schedule: Q01DX Z (ip), vehicle: carboxymethylcellulose (CMC).
The mark [2] stands for this setting: dose: 125.0 micrograms/kg/injection, schedule: Q01DX Z (ip), vehicle: carboxymethylcellulose (CMC).
Setting [3] is: dose: 0.5 mg/kg/injection, schedule: Q01DX Z (ip), vehicle: carboxymethylcellulose (CMC).
Setting [4] is: dose: 1.0 mg/kg/injection, schedule: Q01DX Z (ip), vehicle: carboxymethylcellulose (CMC).
The mark [5] stands for this setting: dose: 2.0 mg/kg/injection, schedule: Q01DX Z (ip), vehicle: carboxymethylcellulose (CMC).
Setting [6] is: dose: 25.0 mg/kg/injection, schedule: Q01DX Z (ip), vehicle: carboxymethylcellulose (CMC).
[7] abbreviates: dose: 50.0 mg/kg/injection, schedule: Q01DX Z (ip), vehicle: carboxymethylcellulose (CMC).
Setting [8] is: dose: 100.0 mg/kg/injection, schedule: Q01DX Z (ip), vehicle: carboxymethylcellulose (CMC).
[9] abbreviates: dose: 200.0 mg/kg/injection, schedule: Q01DX Z (ip), vehicle: carboxymethylcellulose (CMC).
The mark [10] stands for this setting: dose: 400.0 mg/kg/injection, schedule: Q01DX Z (ip), vehicle: carboxymethylcellulose (CMC).
The mark [11] stands for this setting: dose: 12.5 mg/kg/injection, schedule: Q01DX Z (ip), vehicle: carboxymethylcellulose (CMC).

“And” between values parts separate entries of the source, which are not always exact repeats. Equal entries are not always repeated. Toxic doses and inconclusive results are not listed.

For `N#Cc1cn(C2OC(CO)C(O)C2O)c2ncnc(N)c12` (stereo not given), the T/C by setting is: under setting [1], 96 % of control; under setting [2], 102 % of control; (dose: 250.0 micrograms/kg/injection, schedule: Q01DX Z (ip), vehicle: carboxymethylcellulose (CMC)) 115 % of control; (dose: 500.0 micrograms/kg/injection, schedule: Q01DX Z (ip), vehicle: carboxymethylcellulose (CMC)) 93 % of control.

In the case of `NC(=O)N(CCCl)N=O`, the T/C by setting is: under setting [3], 95 % of control; under setting [4], 96 % of control and 101 % of control; under setting [5], 100 % of control and 101 % of control.

Turning to `O=c1[nH]cc(F)c(=O)[nH]1`, the T/C by setting is: (dose: 6.25 mg/kg/injection, schedule: Q01DX Z (ip), vehicle: saline) 102 % of control; (dose: 100.0 mg/kg/injection, schedule: Q01DX Z (ip), vehicle: saline) 110 % of control.

As for `O=C(Nc1ccc(C2=NCCN2)cc1)c1ccc(C(=O)Nc2ccc(C3=NCCN3)cc2)cc1`, the T/C is, setting by setting: under setting [6], 98 % of control; under setting [7], 98 % of control; under setting [8], 124 % of control; under setting [9], 236 % of control; under setting [10], 104 % of control.

As for `OCC1OC(n2cnc3c(=S)nc[nH]c32)C(O)C1O` (stereo not given), the T/C was 100 % of control under setting [5]; 100 % of control (dose: 4.0 mg/kg/injection, schedule: Q01DX Z (ip), vehicle: carboxymethylcellulose (CMC)); 107 % of control (dose: 8.0 mg/kg/injection, schedule: Q01DX Z (ip), vehicle: carboxymethylcellulose (CMC)); 115 % of control (dose: 16.0 mg/kg/injection, schedule: Q01DX Z (ip), vehicle: carboxymethylcellulose (CMC)); 120 % of control (dose: 31.0 mg/kg/injection, schedule: Q01DX Z (ip), vehicle: carboxymethylcellulose (CMC)); 93 % of control (dose: 500.0 mg/kg/injection, schedule: Q01DX Z (ip), vehicle: carboxymethylcellulose (CMC)).

Consider `CC(=O)Nc1ccc2nc3ccc(NC(C)=O)cc3[n+](-c3ccccc3)c2c1`, for which the T/C was 97 % of control under setting [11]; 97 % of control under setting [6]; 113 % of control under setting [7]; 98 % of control under setting [8]; 88 % of control under setting [9]; 93 % of control under setting [10].

In the case of `CSc1ncnc2c1ncn2C1OC(CO)C(O)C1O` (stereo not given), the T/C (dose: 6.25 mg/kg/injection, schedule: Q01DX Z (ip), vehicle: carboxymethylcellulose (CMC)) was 102 % of control; the T/C under setting [11] was 107 % of control; the T/C under setting [7] is 97 % of control.

`O[C@H](CN1CC1)[C@@H](O)CN1CC1`: the T/C (dose: 0.06 mg/kg/injection, schedule: Q01DX Z (ip), vehicle: carboxymethylcellulose (CMC)) is 97 % of control; the T/C (dose: 0.12 mg/kg/injection, schedule: Q01DX Z (ip), vehicle: carboxymethylcellulose (CMC)) was 110 % of control; the T/C under setting [3] was 170 % of control and 178 % of control; the T/C under setting [4] is 100 % of control; the T/C under setting [1] was 101 % of control; the T/C under setting [2] is 109 % of control.

For `O=c1cnn(C2OC(CO)C(O)C2O)c(=O)[nH]1` (stereo not given), the T/C was 112 % of control (dose: 8.0 mg/kg/injection, schedule: Q01DX Z (ip), vehicle: water); 122 % of control (dose: 16.0 mg/kg/injection, schedule: Q01DX Z (ip), vehicle: water); 110 % of control (dose: 1000.0 mg/kg/injection, schedule: Q01DX Z (ip), vehicle: water).

Consider `O=C1C(NC(=O)C2CCCCC2)=C(N2CC2)C(=O)C(NC(=O)C2CCCCC2)=C1N1CC1`, for which the T/C was 100 % of control under setting [6]; 96 % of control under setting [7]; 114 % of control under setting [8]; 108 % of control and 118 % of control under setting [9]; 120 % of control under setting [10]; 104 % of control (dose: 800.0 mg/kg/injection, schedule: Q01DX Z (ip), vehicle: carboxymethylcellulose (CMC)).

Regarding `C[C@@H]1C[C@@H]([C@H](O)CC2CC(=O)NC(=O)C2)C(=O)[C@@H](C)C1`, the T/C runs as follows: (dose: 9.4 mg/kg/injection, schedule: Q01DX Z (ip), vehicle: water) 90 % of control; (dose: 12.5 mg/kg/injection, schedule: Q01DX Z (ip), vehicle: water) 114 % of control and 122 % of control (2×); (dose: 18.8 mg/kg/injection, schedule: Q01DX Z (ip), vehicle: water) 93 % of control; (dose: 25.0 mg/kg/injection, schedule: Q01DX Z (ip), vehicle: water) 156 % of control; (dose: 37.5 mg/kg/injection, schedule: Q01DX Z (ip), vehicle: water) 124 % of control; (dose: 50.0 mg/kg/injection, schedule: Q01DX Z (ip), vehicle: water) 108 % of control.

Regarding `CCC(=O)O[C@H]1CC[C@H]2[C@@H]3CCC4=CC(=O)CC[C@]4(C)[C@H]3CC[C@]12C`, the T/C by setting is: (dose: 37.5 mg/kg/injection, schedule: Q01DX Z (sc), vehicle: steriod suspending solution) 101 % of control; (dose: 60.0 mg/kg/injection, schedule: Q01DX Z (sc), vehicle: steriod suspending solution) 120 % of control; (dose: 75.0 mg/kg/injection, schedule: Q01DX Z (sc), vehicle: steriod suspending solution) 104 % of control; (dose: 150.0 mg/kg/injection, schedule: Q01DX Z (sc), vehicle: steriod suspending solution) 98 % of control; (dose: 300.0 mg/kg/injection, schedule: Q01DX Z (sc), vehicle: steriod suspending solution) 98 % of control and 119 % of control; (dose: 1500.0 mg/kg/injection, schedule: Q01DX Z (sc), vehicle: steriod suspending solution) 96 % of control.

Consider `CC/C(=C(/CC)c1ccc(O)cc1)c1ccc(O)cc1`, for which the T/C (dose: 31.25 mg/kg/injection, schedule: Q01DX Z (sc), vehicle: steriod suspending solution) was 97 % of control; the T/C (dose: 62.5 mg/kg/injection, schedule: Q01DX Z (sc), vehicle: steriod suspending solution) is 110 % of control; the T/C (dose: 125.0 mg/kg/injection, schedule: Q01DX Z (sc), vehicle: steriod suspending solution) is 100 % of control; the T/C (dose: 250.0 mg/kg/injection, schedule: Q01DX Z (sc), vehicle: steriod suspending solution) is 87 % of control.
